The results in this text go back to ChEMBL document CHEMBL1135086.

The target of this assay is Nitric oxide synthase 1 (Rattus norvegicus) (UniProt P29476). Briefly: Effect on the activity of recombinant rat neuronal nitric oxide synthase as determined with radioactive L-arginine/L-citruline conversion assay. Also noted: concentration or dose not given beside the values. The settings on record: concentration not given here.
Sequence of Nitric oxide synthase 1 (Rattus norvegicus) (P29476 whole entry): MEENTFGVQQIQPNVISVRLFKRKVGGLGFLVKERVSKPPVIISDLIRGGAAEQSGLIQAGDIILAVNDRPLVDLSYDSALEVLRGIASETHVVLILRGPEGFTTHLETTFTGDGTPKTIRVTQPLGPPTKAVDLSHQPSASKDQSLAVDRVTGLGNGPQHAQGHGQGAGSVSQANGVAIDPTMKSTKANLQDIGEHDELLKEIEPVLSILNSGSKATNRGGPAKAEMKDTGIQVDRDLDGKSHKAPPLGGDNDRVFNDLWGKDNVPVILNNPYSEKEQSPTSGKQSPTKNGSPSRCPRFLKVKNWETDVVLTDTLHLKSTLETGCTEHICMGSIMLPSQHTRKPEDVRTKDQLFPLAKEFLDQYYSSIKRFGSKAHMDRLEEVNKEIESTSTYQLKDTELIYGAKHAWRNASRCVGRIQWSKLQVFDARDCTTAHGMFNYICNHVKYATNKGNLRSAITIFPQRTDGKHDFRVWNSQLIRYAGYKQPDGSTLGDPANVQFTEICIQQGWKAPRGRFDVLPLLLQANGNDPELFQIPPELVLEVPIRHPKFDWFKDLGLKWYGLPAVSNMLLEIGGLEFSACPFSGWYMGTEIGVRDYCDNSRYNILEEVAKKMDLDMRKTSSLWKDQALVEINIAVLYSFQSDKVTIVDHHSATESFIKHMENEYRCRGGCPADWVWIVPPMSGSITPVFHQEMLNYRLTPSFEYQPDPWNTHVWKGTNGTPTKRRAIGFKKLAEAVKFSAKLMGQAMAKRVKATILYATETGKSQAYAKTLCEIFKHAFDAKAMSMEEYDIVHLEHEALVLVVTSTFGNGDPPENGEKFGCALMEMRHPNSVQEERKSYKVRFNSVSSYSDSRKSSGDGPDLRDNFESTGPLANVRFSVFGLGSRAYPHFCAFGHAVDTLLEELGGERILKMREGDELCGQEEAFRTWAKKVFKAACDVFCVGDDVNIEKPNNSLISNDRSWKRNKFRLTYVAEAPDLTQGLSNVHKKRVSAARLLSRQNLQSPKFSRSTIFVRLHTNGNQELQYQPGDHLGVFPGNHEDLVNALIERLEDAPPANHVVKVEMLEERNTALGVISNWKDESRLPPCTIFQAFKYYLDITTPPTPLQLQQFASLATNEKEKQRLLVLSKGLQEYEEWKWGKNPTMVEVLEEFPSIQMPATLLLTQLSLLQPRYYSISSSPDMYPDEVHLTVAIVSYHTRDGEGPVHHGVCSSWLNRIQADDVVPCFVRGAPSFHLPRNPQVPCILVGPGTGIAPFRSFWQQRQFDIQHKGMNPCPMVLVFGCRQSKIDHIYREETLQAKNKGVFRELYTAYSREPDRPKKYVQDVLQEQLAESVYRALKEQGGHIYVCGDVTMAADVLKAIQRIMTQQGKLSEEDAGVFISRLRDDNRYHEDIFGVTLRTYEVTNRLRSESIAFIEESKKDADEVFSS
A word on the inhibition: it is the share of the control response that was lost under treatment. For `NCC(O)c1cc(O)c(O)cc1[N+](=O)[O-]` (stereo unspecified), the inhibition was determined as 78%.
The result for `O=[N+]([O-])c1cccc(O)c1O` reads 94%; that for `NCCc1cc(O)c(O)cc1[N+](=O)[O-]`, 71%.
To `O=[N+]([O-])c1ccc(O)c(O)c1` belongs 33%.
To `Cc1cc([N+](=O)[O-])cc(O)c1O` belongs 28%.
In the case of `Cc1cc(O)c(O)cc1[N+](=O)[O-]`, the inhibition came out at 35%.
